Laboratory results reported in patent US20120277211A1, “METHODS AND COMPOSITIONS FOR THE TREATMENT OF PSYCHOTIC DISORDERS THROUGH THE IDENTIFICATION OF THE SULT4A1-1 HAPLOTYPE” (priority 2009, published 2012).
Like-named read-outs stand apart in the source and are kept apart here. Marks after values point to notes of the source that are not given here.

Legend:
[1] = test system: Caucasian schizophrenia patients; assay: CATIE: time to discontinuation for all causes by SULT4A1-1 status; assay type: in vivo, human
Description: The primary endpoint for the CATIE study was time to discontinuation for all causes (Lieberman et al., 2005). Thus the inventors evaluated the effect of SULT41-1 status on this important parameter.

schizophrenia patients [2] = assay: CATIE: months of successful treatment measured by the CGI scale (TMSUCC1); assay type: in vivo, human
Description: The CATIE clinical data set included Clinical Global Impression (CGI) Scale, an observer-provided assessment of the psychiatric health of the patient (Stroup et al., 2003; Guy 1976). Patients are rated with the CGI Scale from 1 to 7, with higher scores indicating greater severity of illness. The CATIE study provided a response variable that measured the time (in months) of successful treatment as measured by the CGI scale (“TMSUCC1” in the CATIE data).

schizophrenia patients [3] = details: Phase II; for Responders: decrease PANSS ≧20%, LOCF
[4] = test system: African American schizophrenia patients; assay: CATIE: change in total PANSS (LOCF) by SULT4A1-1 haplotype status, African Americans; assay type: in vivo, human; details: for Number of individuals with change in total PANSS ≦−20% (responders) / Number of individuals with change in total PANSS ≧−20% (non-responders): LOCF
Description: The design of the CATIE study has been described in detail by others (Lieberman et al., 2005; Stroup et al., 2003). […] A total of 738 subjects consented to provide DNA for genetic study. […] Retrospective genetic analyses, judged to be exempt from human studies requirements by an IRB, were conducted in the current study. All tested patients were studied using well established clinical endpoints comparing baseline, intermediate, and last observation carried forward (LOCF) for the PANSS scores using CATIE data. […] To remove time on drug as a variable for the CATIE trial, analysis was limited to only those patients who were randomized to a different drug following the initial washout period (drug switchers).

schizophrenia patients [5] = details: published CATIE results (Lieberman et al. 2005); cited from earlier work
[6] = test system: Caucasian schizophrenia patients; assay: CATIE: hospitalization due to exacerbation of psychosis by SULT4A1-1 status; assay type: in vivo, human
Description: To assess if SULT4A1-1 status impacts the risk of hospitalization in Caucasians, the inventors assigned SULT4A1-1 status to each CATIE subject and evaluated hospitalization events due to exacerbation of psychosis. For this analysis, the inventors assigned a dichotomous value (positive or negative) for hospitalization status to subjects in each phase of the trial based on only the first hospitalization event for a given patient in that phase. Patients participating in Phases 1, 2, and/or 3 were included in the totals for the appropriate drug.
A Kaplan-Meier survival analysis was performed to determine whether there was a difference between the survival (hospitalization) rates for the SULT4A1-1 negative and SULT4A1-1 positive patient populations treated with each of the atypical antipsychotics. Survival plots model the fraction of the population that survived (i.e., no hospitalization event) as a function of time.

[7] = test system: unsegmented patient populations; details: cited from earlier work
schizophrenia patients [8] = test system: schizophrenia patients
Description: For the analyses shown in Tables 22-24, SULT4A1-1 haplotype status was assigned as describe in Example 3, and standard statistical survival analysis using Cox's proportional hazards model was used to determine the relative risk (hazard) of discontinuing drug use. The Hazard Ratio (HR) measures the risk of an event (in this case, switching or discontinuation from the drug) relative to patient exposure or status (in this case, SULT4A1-1 positive status).
As describe in Example 11, Hazard Ratio (HR) measures the risk of an event (in this case, switching or discontinuation from the drug) relative to patient exposure or status (in this case, SULT4A1-1 status).

[9] = Unsegmented, Phases 1, 2 and/or 3, first event
[10] = SULT4A1-1 negative risperidone / SULT4A1-1 negative all other drugs
[11] = Unsegmented risperidone / Unsegmented all other drugs

| Structure (SMILES) | Time to discontinuation, mean ([1]; SULT4A1-1 negative) | Length of successful treatment (CGI Months), Mean (schizophrenia patients [2]; SULT4A1-1 negative) [Months] | Length of successful treatment (CGI Months), Mean (schizophrenia patients [2]; SULT4A1-1 positive) | Length of successful treatment (CGI Months), Mean (schizophrenia patients [2]; Unsegmented) [Months] | Nonresponders (schizophrenia patients [3]; SULT4A1-1 Negative) | Responders (schizophrenia patients [3]; SULT4A1-1 Negative) | % Responders (schizophrenia patients [3]; SULT4A1-1 Positive) [%] | Nonresponders (schizophrenia patients [3]; SULT4A1-1 Positive) | Responders (schizophrenia patients [3]; SULT4A1-1 Positive) | Number of individuals with change in total PANSS ≦−20% (responders) ([4]; SULT4A1-1 negative) | Number of individuals with change in total PANSS ≧−20% (non-responders) ([4]; SULT4A1-1 negative) | Responders ([4]; SULT4A1-1 positive) [%] | Number of individuals with change in total PANSS ≦−20% (responders) ([4]; SULT4A1-1 positive) | Number of individuals with change in total PANSS ≧−20% (non-responders) ([4]; SULT4A1-1 positive) | HOSP, number of patients hospitalized ([6]; SULT4A1-1 negative) | HOSP, number of patients hospitalized ([6]; SULT4A1-1 positive) | HOSP, rate of hospitalization ([6]; SULT4A1-1 positive) [%] | HOSP, rate of hospitalization ([6]; Unsegmented) [%] | HOSP, number of patients hospitalized [6, 9] | further results |
| --- | --- | --- | --- | --- | --- | --- | --- | --- | --- | --- | --- | --- | --- | --- | --- | --- | --- | --- | --- | --- |
| Cc1cc2c(s1)Nc1ccccc1N=C2N1CCN(C)CC1 [Olanzapine] | 10.0** Months | 5.44 | 8.33^d Months | 6.10 | 14 | 3 | 42.9 | 4 | 3 | 15 | 30 | 25 | 1 | 3 | 22 | 1 | 2.6 | 14.2 | 23 | Responders ([4]; SULT4A1-1 negative): 33.3%; Incidence of clinically significant weight gain compared to other drugs (schizophrenia patients [5]): higher incidence of clinically significant weight gain |
| Cc1nc2n(c(=O)c1CCN1CCC(c3noc4cc(F)ccc34)CC1)CCCC2 [Risperidone] | 11.3 Months | 6.88 | 1.76 Months | 5.79 | 8 | 4 | 0 | 1 | 0 | 7 | 34 | 60 | 3 | 2 | 16 | 4 | 11.1 | 12.6 | 20 | Time to discontinuation, mean ([1]; SULT4A1-1 positive): 8.0*** Months; % Responders (schizophrenia patients [3]; SULT4A1-1 Negative): 33.3%; Effect Size vs. FGA ([7]; first generation antipsychotics, Davis et al. (2003)): −0.25; Effect Size vs. Placebo ([7]; meta-analysis, Leucht et al. (2009), negative = greater reduction in PANSS): −0.59; Mean difference in total PANSS score between olanzapine and labelled drug, Meta-analysis ([7]; unsegmented populations, Leucht et al. (2009)): −1.9; HR, all-cause discontinuation (schizophrenia patients [8]; [10]): 0.79^a; HR, discontinuation due to lack of efficacy (schizophrenia patients [8]; [10]): 0.88^a; HR, all-cause discontinuation (schizophrenia patients [8]; SULT4A1-1 positive risperidone / SULT4A1-1 positive all other drugs): 1.48^a; HR, all-cause discontinuation (schizophrenia patients [8]; [11]): 0.91^a; HR, discontinuation due to lack of efficacy (schizophrenia patients [8]; [11]): 1.09^a; HOSP, rate of hospitalization ([6]; SULT4A1-1 negative): 13%; Kaplan-Meier: difference between survival (no hospitalization) rates of SULT4A1-1 negative and positive patients ([6]; per drug): not statistically significant |
